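Growth conditions: 96-well plates. Treatment: test compound, 48 hours, 5 concentrations. Analysis: linear interpolation between bracketing concentrations; unreached endpoints set to highest concentration. GI50 is the concentration that inhibits growth by half. TGI denotes the concentration required for complete inhibition of growth.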
How the values were obtained:
Assay in all cases: NCI anticancer screen, dose series, 48 h
[1] = tested on: SK-MEL-2 melanoma
[2] = tested on: T-47D breast
[3] = tested on: A549 NSCLC
[4] = tested on: SF-295 CNS
[5] = tested on: HOP-62 NSCLC
[6] = tested on: NCI/ADR-RES ovarian
[7] = tested on: MDA-MB-231 breast
[8] = tested on: SK-MEL-5 melanoma
[9] = tested on: MDA-MB-435
[10] = tested on: UO-31 renal
[11] = tested on: LOX IMVI melanoma
[12] = tested on: CCRF-CEM leukemia
[13] = tested on: HL-60(TB) leukemia
[14] = tested on: HCC-2998 colon
[15] = tested on: HCT-15 colon
[16] = tested on: K-562 leukemia
[17] = tested on: NCI-H460 lung
[18] = tested on: SK-OV-3 ovarian
[19] = tested on: SR leukemia
[20] = tested on: UACC-62 melanoma
[21] = tested on: HT29 colon
[22] = tested on: SK-MEL-28 melanoma
[23] = tested on: COLO 205 colon
[24] = tested on: RXF 393 renal
[25] = tested on: HOP-92 NSCLC
[26] = tested on: NCI-H23 lung
[27] = tested on: SN12C renal
[28] = tested on: BT-549 breast
[29] = tested on: U251 CNS
[30] = tested on: UACC-257 melanoma
[31] = tested on: SF-268 CNS
[32] = tested on: OVCAR-8 ovarian
[33] = tested on: IGROV1 ovarian
[34] = tested on: NCI-H522 lung
[35] = tested on: PC-3 prostate
[36] = tested on: CAKI-1 renal
[37] = tested on: RPMI-8226 leukemia
[38] = tested on: ACHN renal
[39] = tested on: MOLT-4 leukemia
[40] = tested on: DU-145 prostate
[41] = tested on: EKVX NSCLC
[42] = tested on: OVCAR-5 ovarian
[43] = tested on: MALME-3M melanoma
[44] = tested on: OVCAR-3 ovarian
[45] = tested on: SNB-19 CNS
[46] = tested on: M14 melanoma
[47] = tested on: TK-10 renal
[48] = tested on: SF-539 CNS
[49] = tested on: KM12 colon
[50] = tested on: OVCAR-4 ovarian
[51] = tested on: 786-0 renal
[52] = tested on: NCI-H226 lung

Compound `CC(=O)N[C@H]1CSSC[C@@H](C(N)=O)NC(=O)[C@H](C(C)C)NC(=O)[C@H](C)NC(=O)[C@H](Cc2cnc[nH]2)NC1=O` has a GI50 [1] of over 100 µM, a TGI [1] of over 100 µM and a GI50 [2] of over 100 µM. It also gave a TGI [2] of over 100 µM, a GI50 [3] of over 100 µM and a TGI [3] of over 100 µM. It also gave a GI50 [4] of over 100 µM, a TGI [4] of over 100 µM and a GI50 [5] of over 100 µM. For the same compound, the TGI [5] was over 100 µM, the GI50 [6] was over 100 µM and the TGI [6] was over 100 µM. The GI50 [7] was over 100 µM, the TGI [7] was over 100 µM and the GI50 [8] was over 100 µM. It also gave a TGI [8] of over 100 µM, a GI50 [9] of over 100 µM and a TGI [9] of over 100 µM. For the same compound, the GI50 [10] was over 100 µM, the TGI [10] was over 100 µM and the GI50 [11] was over 100 µM. For the same compound, the TGI [11] was over 100 µM, the GI50 [12] was 29.1 µM and the TGI [12] was over 100 µM. It also gave a GI50 [13] of over 100 µM, a TGI [13] of over 100 µM and a GI50 [14] of over 100 µM. The TGI [14] was over 100 µM, the GI50 [15] was over 100 µM and the TGI [15] was over 100 µM. The GI50 [16] was over 100 µM, the TGI [16] was over 100 µM and the GI50 [17] was over 100 µM. The TGI [17] was over 100 µM, the GI50 [18] was over 100 µM and the TGI [18] was over 100 µM. It also gave a GI50 [19] of over 100 µM, a TGI [19] of over 100 µM and a GI50 [20] of over 100 µM. The TGI [20] was over 100 µM, the GI50 [21] was over 100 µM and the TGI [21] was over 100 µM. The GI50 [22] was over 100 µM, the TGI [22] was over 100 µM and the GI50 [23] was over 100 µM. The TGI [23] was over 100 µM, the GI50 [24] was over 100 µM and the TGI [24] was over 100 µM. The GI50 [25] was over 100 µM, the TGI [25] was over 100 µM and the GI50 [26] was over 100 µM. It also gave a TGI [26] of over 100 µM, a GI50 [27] of over 100 µM and a TGI [27] of over 100 µM. The GI50 [28] was over 100 µM, the TGI [28] was over 100 µM and the GI50 [29] was over 100 µM. It also gave a TGI [29] of over 100 µM, a GI50 [30] of over 100 µM and a TGI [30] of over 100 µM. It also gave a GI50 [31] of over 100 µM, a TGI [31] of over 100 µM and a GI50 [32] of over 100 µM. It also gave a TGI [32] of over 100 µM, a GI50 [33] of over 100 µM and a TGI [33] of over 100 µM. The GI50 [34] was over 100 µM, the TGI [34] was over 100 µM and the GI50 [35] was over 100 µM. It also gave a TGI [35] of over 100 µM, a GI50 [36] of over 100 µM and a TGI [36] of over 100 µM. The GI50 [37] was over 100 µM, the TGI [37] was over 100 µM and the GI50 [38] was over 100 µM. For the same compound, the TGI [38] was over 100 µM, the GI50 [39] was over 100 µM and the TGI [39] was over 100 µM. For the same compound, the GI50 [40] was over 100 µM, the TGI [40] was over 100 µM and the GI50 [41] was over 100 µM. For the same compound, the TGI [41] was over 100 µM, the GI50 [42] was over 100 µM and the TGI [42] was over 100 µM. The GI50 [43] was over 100 µM, the TGI [43] was over 100 µM and the GI50 [44] was over 100 µM. For the same compound, the TGI [44] was over 100 µM, the GI50 [45] was over 100 µM and the TGI [45] was over 100 µM. It also gave a GI50 [46] of over 100 µM, a TGI [46] of over 100 µM and a GI50 [47] of over 100 µM. For the same compound, the TGI [47] was over 100 µM, the GI50 [48] was over 100 µM and the TGI [48] was over 100 µM. It also gave a GI50 [49] of over 100 µM, a TGI [49] of over 100 µM and a GI50 [50] of over 100 µM. It also gave a TGI [50] of over 100 µM, a GI50 [51] of over 100 µM and a TGI [51] of over 100 µM. For the same compound, the GI50 [52] was over 100 µM and the TGI [52] was over 100 µM.

— PubChem BioAssay (NCI)
